In patent publication US5604256A, “Octahydronaphthalene oxime derivatives for cholesterol biosynthesis inhibition” (Sankyo Company, Limited, priority 1992, dated 1997):
Where a name gives a salt, the structure may show the parent alone.

What follows are molecules tested against T1, HMG-CoA reductase (Rattus norvegicus, UniProt P51639) (assay: biochemical). Settings: Table 3.
T1 sequence (P51639 1-887): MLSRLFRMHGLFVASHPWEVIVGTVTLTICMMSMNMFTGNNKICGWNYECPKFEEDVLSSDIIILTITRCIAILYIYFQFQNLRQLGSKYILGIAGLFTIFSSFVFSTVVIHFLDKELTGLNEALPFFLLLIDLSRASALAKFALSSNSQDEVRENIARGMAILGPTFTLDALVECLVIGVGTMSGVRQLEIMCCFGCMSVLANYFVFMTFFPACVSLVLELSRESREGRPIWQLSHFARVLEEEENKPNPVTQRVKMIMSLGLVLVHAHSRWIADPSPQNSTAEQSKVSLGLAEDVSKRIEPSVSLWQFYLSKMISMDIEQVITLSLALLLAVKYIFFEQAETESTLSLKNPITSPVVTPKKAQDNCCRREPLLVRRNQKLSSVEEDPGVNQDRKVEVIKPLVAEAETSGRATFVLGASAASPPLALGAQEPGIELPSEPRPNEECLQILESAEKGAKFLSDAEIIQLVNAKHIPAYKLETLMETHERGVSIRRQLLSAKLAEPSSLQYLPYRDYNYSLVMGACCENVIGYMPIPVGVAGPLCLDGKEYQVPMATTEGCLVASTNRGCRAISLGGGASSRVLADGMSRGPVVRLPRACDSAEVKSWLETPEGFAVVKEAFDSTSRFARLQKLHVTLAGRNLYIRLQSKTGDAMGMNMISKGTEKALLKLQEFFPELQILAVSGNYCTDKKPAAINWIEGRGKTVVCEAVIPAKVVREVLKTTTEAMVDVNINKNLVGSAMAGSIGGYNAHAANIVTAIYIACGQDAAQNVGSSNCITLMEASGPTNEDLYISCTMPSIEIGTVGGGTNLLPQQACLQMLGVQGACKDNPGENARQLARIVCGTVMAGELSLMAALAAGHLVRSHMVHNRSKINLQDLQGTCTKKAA
Excerpt: The determination of the inhibitory activity of the compounds was made using the method of Kuroda et al ["Biochimica et Biophysica Acta" Vol. 486, pp. 70-81 (1977)] which is a modification of the known method of D. J. Shapiro et al ["Analytical Biochemistry" Vol. 31, pp. 383-390 (1969)] with some improvements.

`CCC(C)C(=O)OC1CCC(=NOCc2c(C)noc2C)C2=CC(=O)C(C)C(CCC(=O)CC(O)CC(=O)O)C21` (stereo not drawn) and `CCC(C)C(=O)OC1CCC(=NOCc2c(C)noc2C)C2=CC(=O)C(C)C(CCC(O)CC(O)CC(=O)O)C21` (stereo not drawn) [Na salt of Compound of Preparation 11] are within 1.5-fold of each other in IC50: 0.0163 µM for the first, 0.0173 µM for the second.

`CCC(C)C(=O)OC1CCC(=NOCc2ccccc2)C2=CC(=O)C(C)C(CCC(=O)CC(O)CC(=O)O)C21` (stereo not drawn) and `CCC(C)C(=O)OC1CCC(=NOCc2ccccc2)C2=CC(=O)C(C)C(CCC(O)CC(O)CC(=O)O)C21` (stereo not drawn) [Na salt of Compound of Preparation 1] are within 1.5-fold of each other in IC50: 0.0163 µM for the first, 0.0185 µM for the second.

`CCC(C)C(=O)OC1CCC(=NOCc2cnoc2)C2=CC(=O)C(C)C(CCC(=O)CC(O)CC(=O)O)C21` (stereo not drawn) and `CCC(C)C(=O)OC1CCC(=NOCc2cnoc2)C2=CC(=O)C(C)C(CCC(O)CC(O)CC(=O)O)C21` (stereo not drawn) [Na salt of Compound of Preparation 9] are within 1.5-fold of each other in IC50: 0.0202 µM for the first, 0.0228 µM for the second.
